Read-outs that look alike come from different tables or passages of the source. Bridge positions count the residues as written; N and C are the ends. Square brackets hold non-standard residues; d marks the D form. Peptide text beside a SMILES is read from it.

One experiment concerns H9N2 A/Iran/16/2000. The conditions noted are these: 48 h.
The subject of experiment [1] is H1N1 A1/Malaysia/302/1954. The conditions noted are these: A1/Malaysia/302/1954, 48 h.
Another experiment deals with H3N8 A/Miami/2/63. The conditions noted are these: A/Miami/2/63, 48 h.
For the next experiment, the system named is H3N2 A/HK/8/1968. The conditions noted are these: A/HK/8/1968, 48 h, 50 μM.
A further experiment relates to H1N1 A/NY/18/2009. The note with it: A/NY/18/2009, 48 h, 10 μM.

On to `CC[C@@H](C)[C@H]1NC(=O)[C@@H](Cc2ccccc2)NC(=O)[C@@H](CCCNC(=N)N)NC(=O)[C@H]2CCCN2C(=O)[C@@H](Cc2c[nH]c3ccccc23)NC(=O)[C@@H]([C@H](C)O)NC(=O)[C@H](NC(=O)[C@H](CCCCN)NC(=O)[C@H](CCCCN)NC(=O)[C@H](CCCNC(=N)N)NC(=O)[C@@H](N)CCCNC(=N)N)CSSC[C@H](C(=O)O)NC(=O)[C@@H](CC(N)=O)NC1=O` [PSP III B13, H-RRKKctwprfinc-OH] (H-RRKK[dC][dT][dW][dP][dR][dF][dI][dN][dC]-OH; disulfide 5-13), for which the “% inhibition H9N2” value in the experiment with H9N2 A/Iran/16/2000 (50 μM) came to 79%. Further, the “% inhibition H1N1” value in experiment [1] (50 μM) turned out to be 63%. Moreover, the “% inhibition H3N8” value with H3N8 A/Miami/2/63 (50 μM) worked out at 83%. The “% inhibition H3N2” value in the experiment on H3N2 A/HK/8/1968 came to 96%.
Consider `CC[C@@H](C)[C@H]1NC(=O)[C@@H](Cc2ccccc2)NC(=O)[C@@H](CCCNC(=N)N)NC(=O)[C@@H](CCC(N)=O)NC(=O)[C@@H](Cc2c[nH]c3ccccc23)NC(=O)[C@@H]([C@H](C)O)NC(=O)[C@H](NC(=O)[C@H](CCCCN)NC(=O)[C@H](CCCCN)NC(=O)[C@H](CCCNC(=N)N)NC(=O)[C@@H](N)CCCNC(=N)N)CSSC[C@H](C(=O)O)NC(=O)[C@@H](CC(N)=O)NC1=O` [PSP III B14, H-RRKKctwqrfinc-OH] (H-RRKK[dC][dT][dW][dQ][dR][dF][dI][dN][dC]-OH; disulfide 5-13), for which the “% inhibition H9N2” value in the experiment on H9N2 A/Iran/16/2000 (50 μM) was found to be 86%. Also, the “% inhibition H1N1” value in experiment [1] (50 μM) is recorded as 83%. Further, in the experiment with H3N8 A/Miami/2/63 (50 μM), the “% inhibition H3N8” value came out at 87%. Moreover, the “% inhibition H3N2” value in the experiment on H3N2 A/HK/8/1968 is 96%.
For `CC[C@@H](C)[C@H]1NC(=O)[C@@H](Cc2ccccc2)NC(=O)[C@@H](CCCNC(=N)N)NC(=O)[C@@H](CCCNC(=N)N)NC(=O)[C@@H](Cc2c[nH]c3ccccc23)NC(=O)[C@@H]([C@H](C)O)NC(=O)[C@H](NC(=O)[C@H](CCCCN)NC(=O)[C@H](CCCCN)NC(=O)[C@H](CCCNC(=N)N)NC(=O)[C@@H](N)CCCNC(=N)N)CSSC[C@H](C(=O)O)NC(=O)[C@@H](CC(N)=O)NC1=O` [PSP III B15, H-RRKKctwrrfinc-OH] (H-RRKK[dC][dT][dW][dR][dR][dF][dI][dN][dC]-OH; disulfide 5-13) the same measures were 84%, 83%, 91% and 100%.
In the case of `CC[C@@H](C)[C@H]1NC(=O)[C@@H](Cc2ccccc2)NC(=O)[C@@H](CCCNC(=N)N)NC(=O)[C@@H](CO)NC(=O)[C@@H](Cc2c[nH]c3ccccc23)NC(=O)[C@@H]([C@H](C)O)NC(=O)[C@H](NC(=O)[C@H](CCCCN)NC(=O)[C@H](CCCCN)NC(=O)[C@H](CCCNC(=N)N)NC(=O)[C@@H](N)CCCNC(=N)N)CSSC[C@H](C(=O)O)NC(=O)[C@@H](CC(N)=O)NC1=O` [PSP III B16, H-RRKKctwsrfinc-OH] (H-RRKK[dC][dT][dW][dS][dR][dF][dI][dN][dC]-OH; disulfide 5-13), the “% inhibition H9N2” value with H9N2 A/Iran/16/2000 (50 μM) is reported as 88%. Besides, the “% inhibition H1N1” value in experiment [1] (50 μM) worked out at 88%. For the same compound, the entries for the “% inhibition H3N8” value in the experiment on H3N8 A/Miami/2/63 (50 μM) and in the experiment on H3N8 A/Miami/2/63 (500 μM) were 96% and 100%, respectively. The “% inhibition H3N2” value in the experiment with H3N2 A/HK/8/1968 stood at 96%.
Consider `CC[C@@H](C)[C@H]1NC(=O)[C@@H](Cc2ccccc2)NC(=O)[C@@H](CCCNC(=N)N)NC(=O)[C@@H]([C@H](C)O)NC(=O)[C@@H](Cc2c[nH]c3ccccc23)NC(=O)[C@@H]([C@H](C)O)NC(=O)[C@H](NC(=O)[C@H](CCCCN)NC(=O)[C@H](CCCCN)NC(=O)[C@H](CCCNC(=N)N)NC(=O)[C@@H](N)CCCNC(=N)N)CSSC[C@H](C(=O)O)NC(=O)[C@@H](CC(N)=O)NC1=O` [PSP III B17, H-RRKKctwtrfinc-OH] (H-RRKK[dC][dT][dW][dT][dR][dF][dI][dN][dC]-OH; disulfide 5-13), for which the “% inhibition H9N2” value with H9N2 A/Iran/16/2000 (50 μM) amounted to 86%. For the same compound, the “% inhibition H1N1” value in experiment [1] (50 μM) is recorded as 79%. Also, in the experiment on H3N8 A/Miami/2/63 (50 μM), the “% inhibition H3N8” value is on record as 96%. Further, the “% inhibition H3N2” value in the experiment on H3N2 A/HK/8/1968 came out at 96%.
Turning to `CC[C@@H](C)[C@H]1NC(=O)[C@@H](Cc2ccccc2)NC(=O)[C@@H](CCCNC(=N)N)NC(=O)[C@@H](C(C)C)NC(=O)[C@@H](Cc2c[nH]c3ccccc23)NC(=O)[C@@H]([C@H](C)O)NC(=O)[C@H](NC(=O)[C@H](CCCCN)NC(=O)[C@H](CCCCN)NC(=O)[C@H](CCCNC(=N)N)NC(=O)[C@@H](N)CCCNC(=N)N)CSSC[C@H](C(=O)O)NC(=O)[C@@H](CC(N)=O)NC1=O` [PSP III B18, H-RRKKctwvrfinc-OH] (H-RRKK[dC][dT][dW][dV][dR][dF][dI][dN][dC]-OH; disulfide 5-13), the “% inhibition H9N2” value in the experiment on H9N2 A/Iran/16/2000 (50 μM) came to 88%. Also, the “% inhibition H1N1” value in experiment [1] (50 μM) stood at 90%. Also, the “% inhibition H3N8” value in the experiment with H3N8 A/Miami/2/63 (50 μM) is on record as 100%. Besides, the “% inhibition H3N2” value with H3N2 A/HK/8/1968 was 100%.
As for `CC[C@@H](C)[C@H]1NC(=O)[C@@H](Cc2ccccc2)NC(=O)[C@@H](CCCNC(=N)N)NC(=O)[C@@H](Cc2c[nH]c3ccccc23)NC(=O)[C@@H](Cc2c[nH]c3ccccc23)NC(=O)[C@@H]([C@H](C)O)NC(=O)[C@H](NC(=O)[C@H](CCCCN)NC(=O)[C@H](CCCCN)NC(=O)[C@H](CCCNC(=N)N)NC(=O)[C@@H](N)CCCNC(=N)N)CSSC[C@H](C(=O)O)NC(=O)[C@@H](CC(N)=O)NC1=O` [PSP III B19, H-RRKKctwwrfinc-OH] (H-RRKK[dC][dT][dW][dW][dR][dF][dI][dN][dC]-OH; disulfide 5-13), the “% inhibition H9N2” value in the experiment on H9N2 A/Iran/16/2000 (50 μM) was 97%. The “% inhibition H1N1” value in experiment [1] (50 μM) is on record as 94%. Besides, the “% inhibition H3N8” value in the experiment with H3N8 A/Miami/2/63 (50 μM) turned out to be 100%. Also, the “% inhibition H3N2” value with H3N2 A/HK/8/1968 is on record as 100%.
Take `CC[C@@H](C)[C@H]1NC(=O)[C@@H](Cc2ccccc2)NC(=O)[C@@H](CCCNC(=N)N)NC(=O)[C@@H](Cc2ccc(O)cc2)NC(=O)[C@@H](Cc2c[nH]c3ccccc23)NC(=O)[C@@H]([C@H](C)O)NC(=O)[C@H](NC(=O)[C@H](CCCCN)NC(=O)[C@H](CCCCN)NC(=O)[C@H](CCCNC(=N)N)NC(=O)[C@@H](N)CCCNC(=N)N)CSSC[C@H](C(=O)O)NC(=O)[C@@H](CC(N)=O)NC1=O` [PSP III B20, H-RRKKctwyrfinc-OH] (H-RRKK[dC][dT][dW][dY][dR][dF][dI][dN][dC]-OH; disulfide 5-13): the “% inhibition H9N2” value in the experiment with H9N2 A/Iran/16/2000 (50 μM) is listed as 86%. Also, the “% inhibition H1N1” value in experiment [1] (50 μM) is 83%. For the same compound, the “% inhibition H3N8” value with H3N8 A/Miami/2/63 (50 μM) came to 96%. The “% inhibition H3N2” value with H3N2 A/HK/8/1968 was found to be 100%.
As to `CC[C@@H](C)[C@H]1NC(=O)[C@@H](Cc2ccccc2)NC(=O)[C@@H](C)NC(=O)[C@@H](Cc2ccccc2)NC(=O)[C@@H](Cc2c[nH]c3ccccc23)NC(=O)[C@@H]([C@H](C)O)NC(=O)[C@H](NC(=O)[C@H](CCCCN)NC(=O)[C@H](CCCCN)NC(=O)[C@H](CCCNC(=N)N)NC(=O)[C@@H](N)CCCNC(=N)N)CSSC[C@H](C(=O)O)NC(=O)[C@@H](CC(N)=O)NC1=O` [PSP IV A1, H-RRKKctwfafinc-OH] (H-RRKK[dC][dT][dW][dF][dA][dF][dI][dN][dC]-OH; disulfide 5-13), in the experiment on H9N2 A/Iran/16/2000 (10 μM), the “% inhibition H9N2” value amounted to 77%. Also, in experiment [1] (10 μM), the “% inhibition H1N1” value is 78%. Also, the “% inhibition H3N8” value in the experiment with H3N8 A/Miami/2/63 (10 μM) was found to be 83%. In addition, the “% Inhibition Pdm 2009” value in the experiment with H1N1 A/NY/18/2009 was determined as 78%.
Consider `CC[C@@H](C)[C@H]1NC(=O)[C@@H](Cc2ccccc2)NC(=O)[C@@H](CC(=O)O)NC(=O)[C@@H](Cc2ccccc2)NC(=O)[C@@H](Cc2c[nH]c3ccccc23)NC(=O)[C@@H]([C@H](C)O)NC(=O)[C@H](NC(=O)[C@H](CCCCN)NC(=O)[C@H](CCCCN)NC(=O)[C@H](CCCNC(=N)N)NC(=O)[C@@H](N)CCCNC(=N)N)CSSC[C@H](C(=O)O)NC(=O)[C@@H](CC(N)=O)NC1=O` [PSP IV A3, H-RRKKctwfdfinc-OH] (H-RRKK[dC][dT][dW][dF][dD][dF][dI][dN][dC]-OH; disulfide 5-13), for which the “% inhibition H9N2” value in the experiment on H9N2 A/Iran/16/2000 (10 μM) is 30%. Besides, the “% inhibition H1N1” value in experiment [1] (10 μM) came out at 49%. Moreover, in the experiment on H3N8 A/Miami/2/63 (10 μM), the “% inhibition H3N8” value was 59%. In the experiment with H1N1 A/NY/18/2009, the “% Inhibition Pdm 2009” value was determined as 72%.
Taken in the same sequence, the figures for `CC[C@@H](C)[C@H]1NC(=O)[C@@H](Cc2ccccc2)NC(=O)[C@@H](CCC(=O)O)NC(=O)[C@@H](Cc2ccccc2)NC(=O)[C@@H](Cc2c[nH]c3ccccc23)NC(=O)[C@@H]([C@H](C)O)NC(=O)[C@H](NC(=O)[C@H](CCCCN)NC(=O)[C@H](CCCCN)NC(=O)[C@H](CCCNC(=N)N)NC(=O)[C@@H](N)CCCNC(=N)N)CSSC[C@H](C(=O)O)NC(=O)[C@@H](CC(N)=O)NC1=O` [PSP IV A4, H-RRKKctwfefinc-OH] (H-RRKK[dC][dT][dW][dF][dE][dF][dI][dN][dC]-OH; disulfide 5-13) were 53%, 62%, 72% and 45%.
With `CC[C@@H](C)[C@H]1NC(=O)[C@@H](Cc2ccccc2)NC(=O)CNC(=O)[C@@H](Cc2ccccc2)NC(=O)[C@@H](Cc2c[nH]c3ccccc23)NC(=O)[C@@H]([C@H](C)O)NC(=O)[C@H](NC(=O)[C@H](CCCCN)NC(=O)[C@H](CCCCN)NC(=O)[C@H](CCCNC(=N)N)NC(=O)[C@@H](N)CCCNC(=N)N)CSSC[C@H](C(=O)O)NC(=O)[C@@H](CC(N)=O)NC1=O` [PSP IV A6, H-RRKKctwfGfinc-OH] (H-RRKK[dC][dT][dW][dF]G[dF][dI][dN][dC]-OH; disulfide 5-13), in the experiment on H9N2 A/Iran/16/2000 (10 μM), the “% inhibition H9N2” value stood at 35%. For the same compound, in experiment [1] (10 μM), the “% inhibition H1N1” value is recorded as 59%. Also, the “% inhibition H3N8” value with H3N8 A/Miami/2/63 (10 μM) stood at 57%. Moreover, in the experiment with H1N1 A/NY/18/2009, the “% Inhibition Pdm 2009” value was 47%.

Values taken from patent US10538554B2, “Peptides and uses therefor as antiviral agents” (priority 2015, dated 2020).
